Source: patent US12667546B2, “Methods for manipulating cell state transitions in cancer” (AGENCY FOR SCIENCE, TECHNOLOGY AND RESEARCH, priority 2018, dated 2026)
Entries after “also recorded” stand apart in the source; their conditions may differ.

Key:
NAMEC8 [1] = experiment: Cell morphology of treated NAMEC8; assay type: cell-based, human; conditions: bexarotene, TTNPB, SGC-CBP30, UNC0642, A-485 1 μM, LLY-283, GSK591 20 nM, C-IN-1 500 nM
Procedure: Human mammary epithelial cell lines (HMLE) were generated as described and immortalized using retroviral vectors to express the catalytic subunit of the human telomerase enzyme, hTERT and the SV-40 Large T antigen. NAMEC8 was generated as described. Briefly, HMLE cells were grown to 50% confluency, followed by differential trypsinization for 1 minute with 0.05% trypsin. Detached cells were carefully collected and re-plated at approximately 200 cells per well of a 24-well plate. Upon expansion, wells were screened for populations that were morphologically mesenchymal and can be stably propagated. Clonal and non-clonal NAMEC cell lines were generated. NAMEC8 is a non-clonal line derived from at least 200 mesenchymal cells. HMLE cells and NAMECs were maintained in MEGM (Lonza).

NAMEC8 [2] = experiment: Expression of EMT and lineage markers (qRT-PCR, immunoblot, immunofluorescence) in NAMEC8; assay type: cell-based, human
Procedure: (§1) Cells were rinsed twice in ice-cold PBS. Total RNA was extracted using Trizol (Invitrogen) and column-purified with RNeasy kits (Qiagen). cDNA synthesis was performed with 500 ng of total RNA at 37° C. for 2 h using the SuperScript III First-Strand Synthesis System (Thermo Fisher Scientific), and subsequently diluted 5-fold. mRNA levels were measured with gene-specific primers listed below using the ABI Prism 7900HT Sequence Detection System 2.2 (Applied Biosystems). Results were normalized to GAPDH and analyzed using SDS 2.2 software.
(§2) Cells were harvested and scraped from culture dishes in ice-cold PBS. They were then centrifuged at 12000 rpm for 5 min at 4° C. The pellets were then snap frozen in liquid nitrogen or lysed in ice-cold RIPA lysis buffer (Thermo Scientific) and left on ice for 30 min. Subsequently, the lysates were centrifuged at 12000 rpm for 10 min at 4° C. The supernatants were then aspirated and placed in fresh tubes. Protein concentrations were determined using Coomaisse Blue. 50-80 μg total protein was mixed with NuPAGE™ LDS sample buffer and heated at 70° C. for 10 min. Samples were loaded into NuPAGE™ 4-12% Bis-Tris gels (precast polyacrylamide gel; Invitrogen™). Gel electrophoresis was done at 200V for 1.5 h and then blotted onto nitrocellulose membranes (Trans-Blot Turbo™ transfer pack; Bio-Rad). The membranes were blocked with 5% skimmed milk in Tris-buffered saline (TBS; 1st BASE) with 0.1% Tween-20 (Santa Cruz), and then incubated with primary antibodies overnight at 4° C. Thereafter, the membranes were incubated with a horseradish peroxidase (HRP)-conjugated secondary antibody at room temperature for one hour. Finally, the immunoreactive proteins were visualized by using an enhanced chemiluminescent (ECL) reagent (Thermo Scientific, 34075) with the Chemidoc™ Imager (Bio-Rad, 17001401).
Cell cultures were fixed in 4% paraformaldehyde and permeabilized with 0.25% Triton X-100, followed by blocking with 1% bovine serum albumin in PBST. Cells were incubated in specific primary antibodies, followed by the appropriate secondary antibodies conjugated with Alexa Fluor-488 or -594 (Molecular Probes). Cell nuclei were then stained with DAPI and then viewed and imaged with an Axio Observer D1 epifluorescence microscope with a built-in AxioCamMR3 camera (Zeiss), using the optimal filters and 100-200× magnifications.

SUM159 [3] = experiment: Expression of EMT and lineage markers in SUM159; assay type: cell-based, human
Procedure: as §1
Cells were harvested and scraped from culture dishes in ice-cold PBS. They were then centrifuged at 12000 rpm for 5 min at 4° C. The pellets were then snap frozen in liquid nitrogen or lysed in ice-cold RIPA lysis buffer (Thermo Scientific) and left on ice for 30 min. Subsequently, the lysates were centrifuged at 12000 rpm for 10 min at 4° C. The supernatants were then aspirated and placed in fresh tubes. Protein concentrations were determined using Coomaisse Blue. 50-80 μg total protein was mixed with NuPAGE™ LDS sample buffer and heated at 70° C. for 10 min. Samples were loaded into NuPAGE™ 4-12% Bis-Tris gels (precast polyacrylamide gel; Invitrogen™). Gel electrophoresis was done at 200V for 1.5 h and then blotted onto nitrocellulose membranes (Trans-Blot Turbo™ transfer pack; Bio-Rad). […]

NAMEC8 [4] = experiment: Mammosphere assay, NAMEC8; assay type: cell-based, human; conditions: NAMEC8, pre-treated cells
Procedure: (§3) For mammosphere culture, cells were seeded onto 96-well ultralow-adherence plates at 700 cells/well in Mammocult medium (Stem Cell Technologies) supplemented with 4 μg/ml heparin, 0.5 μg/ml hydrocortisone and 1% methylcellulose. Spheres (>100 μm) were counted at 7-10 days later.

SUM159 [5] = experiment: Mammosphere assay, SUM159; assay type: cell-based, human
Procedure: as §3

NAMEC8 [6] = experiment: Flow cytometry of CD44 and CD24, NAMEC8; assay type: cell-based, human
Procedure: (§4) Cells were harvested as per FACS and resuspended in 100 μl of solution containing CD24-PE and CD44-APC (BD-Biosciences) antibodies diluted in 2% FBS in PBS (1:40 dilution). Cells were stained for 45 min with vortexing every 10 min to ensure even staining. After antibody incubation, cells were washed once and resuspended in 300 μl 2% FBS in PBS. Cells were then filtered through a 40 μm strainer and analyzed on BD LSR Fortessa X-20 Cell Analyzer.

SUM159 [7] = experiment: Flow cytometry of CD44 and CD24, SUM159; assay type: cell-based, human
Procedure: as §4

[8] = test system: H3K14ac, H3K18ac and H3K27ac in NAMEC8; experiment: Immunoblot of histone acetylation marks; assay type: cell-based, human
Procedure: as §2

NAMEC8-Ras = experiment: Tumor formation of pre-treated NAMEC8-Ras injected subcutaneously; assay type: in vivo, NSG mice; conditions: pre-treated cells, 11 weeks
SUM159 [9] = experiment: Fatty acid β-oxidation assay (rate of FAO); assay type: cell-based, human; conditions: etomoxir alone or together with bexarotene
Procedure: FAO rate was measured using the mitochondrial stress test on the XF96 analyzer (Seahorse Bioscience) according to manufacturer's instructions. Cells were seeded in 96well XF96 cell culture plates at a density of 9000 cells/well in complete media. Cells were then incubated with XF modified DMEM assay medium (Seahorse Bioscience) supplemented with 1 mM glutamine, 0.5 mM glucose, 1% FBS and 0.5 mM carnitine the next day for 18 h. On the day of the assay, cells were incubated with FAO assay medium (KHB: 111 mM NaCl, 4.7 mM KCl, 1.25 mM CaCl2), 2 mM MgSO4, 1.2 mM NaH2 PO4 supplemented with 2.5 mM glucose, 0.5 mM carnitine, 5 mM HEPES, adjusted to pH7.4) 45 min prior to the assay in a non-CO2 incubator. Seahorse XF Cell Mito Stress Test compounds (2 μM oligomycin, 2 μM FCCP, 2 μM rotenone). For inhibition of FAO, etomoxir (40 μM) was added 15 min prior to the assay. Just prior to starting the assay, XF Palmitate-BSA FAO substrate or BSA was added to the cells. Plate was then put into the XF96 analyzer and the XF Cell Mito Stress Test was run using the recommended protocol. Rate of FAO was calculated by the difference in maximal respiration when Palmitate-BSA FAO substrate was supplemented relative to BSA control.

HMLE-Twist ER = experiment: 4-OHT-induced EMT in HMLE-Twist ER cells; assay type: cell-based, human
Procedure: (§5) HMLE-Twist-ER cells were generated as described. For EMT-induction, 100 nM of 4-hydroxytamoxifen in ethanol was added to the culture medium every 48 h to induce Twist expression. Control cells were treated with ethanol. MCF7-Slug+Sox9 cells were generated as previously described. HMLE-Zeb1 cells were generated by infection with FUW-Zeb1 and rTTA. Doxycycline was added to the culture medium every 48 h to induce Zeb1 expression. To generate tumorigenic cells from NAMEC8, cells were infected with pWZL-Blast-Ras. MCF7, MCF7-Ras, SUM159 were maintained as previously described. All cell cultures were maintained at 37° C. with 5% CO2.
as §1
(§6) Cells were harvested and scraped from culture dishes in ice-cold PBS. They were then centrifuged at 12000 rpm for 5 min at 4° C. […] Protein concentrations were determined using Coomaisse Blue. […]

MCF7-Slug+Sox9 = experiment: Doxycycline-induced EMT in MCF7-Slug+Sox9 cells; assay type: cell-based, human
Procedure: as §5, §1, §6

A549 = experiment: TGFβ-induced EMT in lung cancer cell line; assay type: cell-based, human
Procedure: as §2

MCF7-Slug+Sox9 tumors = experiment: Orthotopic MCF7-Slug+Sox9 EMT-induced metastasis model; assay type: in vivo, NSG mice; conditions: etomoxir 20 mg/kg per day i.p. plus doxycycline
Procedure: Orthotopic tumor transplantations of MCF7-Slug+Sox9 cells labeled with the tdTomato fluorescent protein were carried out as described previously. Briefly, 1×10^6 cells were resuspended in 30 μl of media containing 50% matrigel and injected into mammary fat pads of NSG mice. Mice were randomly divided into 3 groups (Control, DOX and Etomoxir+DOX). Mice were administered vehicle control (0.9% w/v NaCl) or etomoxir (20 mg/kg) via i.p. injections daily for 3 weeks. Doxycycline was then administered through drinking water for 2 weeks. Mice were sacrificed 10 weeks after doxycycline treatment was stopped and analyzed for lung metastases under a fluorescence microscope. The tumor sections were fixed overnight in 4% paraformaldehyde, immersed in 70% ethanol, and sent to the Advanced Molecular Pathlogy Lab, IMCB for paraffinization. For IF staining, slides were deparaffinized and rehydrated in PBS. The tissues were surrounded with a hydrophobic barrier using a barrier pen and blocked with the blocking buffer (1% bovine serum albumin; BSA, 1% horse serum and 0.2% Triton X-100 in PBS) for 1 hour. They were then washed with PBS and incubated in specific primary antibodies at 4° C. overnight. […] The fluorescence image analysis and the fluorescence overlay image were obtained with the Axio Vision Rel. […]

[10] = in vivo; cited from earlier work

Compound	cell morphology (NAMEC8 [1])	expression of EMT and basal/luminal markers (NAMEC8 [2]; transcript and protein)	expression of EMT and lineage markers / epithelial features (SUM159 [3])	mammosphere formation (NAMEC8 [4])	mammosphere formation (SUM159 [5])	CD44/CD24 surface expression (NAMEC8 [6])	CD44/CD24 surface expression (SUM159 [7])	histone acetylation marks [8]	tumor formation / tumor size (NAMEC8-Ras)	MET phenotype: induction and durability after drug withdrawal (NAMEC8 [2]; drugs removed for at least seven days)	FAO activity (SUM159 [9])	4-OHT-induced EMT (HMLE-Twist ER)	Slug+Sox9-induced EMT (MCF7-Slug+Sox9)	TGFβ-induced EMT (A549)	EMT markers in primary tumors (E-cadherin, Vimentin) (MCF7-Slug+Sox9 tumors)	clinical outcome / toxicity [10]
COc1ccc(CCc2nc3cc(-c4c(C)noc4C)ccc3n2C[C@H](C)N2CCOCC2)cc1Cl [SGC-CBP30]	obvious change in cell morphology from scattered, spindle- and fibroblastic-like cells, to tight clusters of epithelial islands; also recorded: resulted in epithelial-like morphology	significantly increased epithelial marker E-cadherin expression, as well as downregulated several mesenchymal markers, fibronectin, ZEB1 and SLUG; also recorded: most drastic change as compared to the other compounds	increasing epithelial features and decreasing stemness in SUM159	significantly reduce the size and number of spheres formed	significant reduction in spheres formation and spheres size	population of cells with lower CD44 expression was observed; also recorded: Population of cells with decreased CD44 expression was observed	slight decrease in CD44 expression, with a population of cells gaining the expression of CD24; also recorded: decreased CD44 expression and higher CD24 expression	all the acetylation marks were decreased but to a lesser extent compared to A-485 treatment	significantly smaller tumors after 11 weeks; also recorded: significantly reduced tumor formation in mice	–	–	–	–	–	–	–
CCOC(=O)[C@@]1(CCCCCCOc2ccc(Cl)cc2)CO1 [etomoxir]	–	–	–	–	–	–	–	–	–	unable to do so	completely inhibited FAO activity	dramatically block this transition	blocked Slug+Sox9-induced EMT	blocking TGFβ-induced EMT	retention of the epithelial features	failed clinical trials due to liver toxicity
